Experiments:
DU145TXR [1] = experiment: Intrinsic toxicity, MTT survival; type: cell-based, human; details: Homo sapiens; intrinsic toxicity, 48 hours, MTT; ± standard error
Experimental: (§1) Percent survival determined by MTT assay calculated relative to cells treated with equal volume DMSO vehicle and represent the mean±SEM from 2-4 separate studies, each study performed in triplicate wells.
(§2) The intrinsic in vitro toxicities of identified compounds were evaluated to determine their potential therapeutic window. This was assessed in a noncancerous cell line (HFL1) and the human prostate cancer cell lines DU145 and the MDR sub-line DU145TxR.

DU145 = experiment: Intrinsic toxicity, MTT survival; type: cell-based; details: Homo sapiens, DU-145, 48 hours, ± standard error
Experimental: as §1, §2

DU145TXR [2] = experiment: Dose dependent sensitization of MDR cell line to paclitaxel (MTT); type: cell-based, human
Experimental: FIGS. 6A to 6C show the dose dependent sensitization of MDR prostate cancer cell line DU145TxR. […] For reference, the DU145TxR (closed circle) and DU145 (open circle) incubated with paclitaxel only are also included. Values are mean±SEM from at least 2 separate experiments performed in triplicate wells. The data were normalized to the intrinsic toxicities as determined in studies from FIGS. 5A to 5C of each of the compounds for each of the corresponding concentrations.
Dose Dependent Sensitization of MDR Prostate Cancer Cell Line: To determine the degree to which the MDR prostate cancer cell line DU145TxR could be sensitized to paclitaxel the inventors determined cell survival at increasing concentrations of paclitaxel in the presence of three concentrations of P-gp inhibitors. FIGS. 6A, 6B and 6C show the survival of DU145TxR at increasing concentration of paclitaxel in the presence of 5 μM, 10 μM and 25 μM of the experimental compounds, respectively. The open circles represent the parental DU145 cell line in the presence of paclitaxel without addition of any inhibitor compound. The closed circles represent the survival of the multidrug resistant DU145TxR in the presence of paclitaxel alone. […] At that concentration over 10-fold increase in paclitaxel sensitivity in DU145TxR is observed compared to DU145TxR without P-gp inhibitors. Doubling the concentration of the compounds to 10 μM approximately doubled the DU145TxR sensitivity to paclitaxel.

[3] = target: T1, Cysteineless Mouse MDR3 P-glycoprotein (Mus musculus, UniProt P21447, C1070A/C1121A/C1223A/C133A/C427A/C638A/C669A/C713A/C952A); details: ESR data of Brewer et al. (2014); cited from earlier work
T1 construct: made in house; host or cells: Pichia pastoris
T1 sequence (P21447 whole entry C133A/C427A/C638A/C669A/C713A/C952A/C1070A/C1121A/C1223A): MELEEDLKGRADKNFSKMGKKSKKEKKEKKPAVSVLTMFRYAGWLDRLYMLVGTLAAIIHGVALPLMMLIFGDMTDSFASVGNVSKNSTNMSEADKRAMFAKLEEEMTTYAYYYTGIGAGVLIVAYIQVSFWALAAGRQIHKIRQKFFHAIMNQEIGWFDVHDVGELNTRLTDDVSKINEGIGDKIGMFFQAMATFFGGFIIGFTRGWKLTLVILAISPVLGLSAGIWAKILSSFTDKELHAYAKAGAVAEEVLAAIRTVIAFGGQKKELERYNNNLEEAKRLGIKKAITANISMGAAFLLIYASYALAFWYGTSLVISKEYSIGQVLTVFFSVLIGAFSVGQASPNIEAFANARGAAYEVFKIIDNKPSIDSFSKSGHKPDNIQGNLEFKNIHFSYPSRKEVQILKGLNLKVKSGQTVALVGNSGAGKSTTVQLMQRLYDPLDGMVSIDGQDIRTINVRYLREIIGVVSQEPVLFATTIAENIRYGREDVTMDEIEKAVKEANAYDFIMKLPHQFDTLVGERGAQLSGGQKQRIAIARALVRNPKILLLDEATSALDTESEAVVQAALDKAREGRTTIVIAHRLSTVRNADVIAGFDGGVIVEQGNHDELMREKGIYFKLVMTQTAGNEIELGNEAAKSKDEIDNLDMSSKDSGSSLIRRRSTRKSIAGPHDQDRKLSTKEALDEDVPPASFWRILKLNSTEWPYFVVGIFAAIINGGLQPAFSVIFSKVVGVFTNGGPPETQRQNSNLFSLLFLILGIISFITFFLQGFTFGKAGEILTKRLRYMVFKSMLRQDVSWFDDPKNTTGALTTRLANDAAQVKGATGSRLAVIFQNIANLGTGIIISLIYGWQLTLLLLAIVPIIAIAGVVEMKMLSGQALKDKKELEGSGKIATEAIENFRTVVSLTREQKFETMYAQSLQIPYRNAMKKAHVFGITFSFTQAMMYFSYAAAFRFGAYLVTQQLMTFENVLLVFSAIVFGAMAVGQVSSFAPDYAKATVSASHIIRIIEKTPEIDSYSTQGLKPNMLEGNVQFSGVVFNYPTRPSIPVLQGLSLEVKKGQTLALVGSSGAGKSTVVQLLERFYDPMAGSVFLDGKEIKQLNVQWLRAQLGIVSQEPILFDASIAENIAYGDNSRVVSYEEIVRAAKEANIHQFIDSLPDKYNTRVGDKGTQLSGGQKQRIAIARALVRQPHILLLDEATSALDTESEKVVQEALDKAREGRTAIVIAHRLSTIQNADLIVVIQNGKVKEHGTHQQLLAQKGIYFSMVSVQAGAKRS

DU145TXR [4] = experiment: Potentiation of 500 nM paclitaxel cytotoxicity (MTT); type: cell-based, human; details: for Effect on paclitaxel sensitivity: 50 nM-25 μM inhibitor with 500 nM paclitaxel
Experimental: FIGS. 4A and 4B show the in silico identified P-gp inhibitors potentiate the cytotoxic effects of paclitaxel in the MDR human prostate cancer cell line DU145TxR. […] Values represent the mean±SEM of at least two separate experiments performed in triplicate.
A range of experimental inhibitor concentrations was added in the presence of 500 nM paclitaxel and the cell viability was assessed using the MTT assay.
In order to compare the efficacy of inhibitors, the potentiation concentration of inhibitor resulting in 50% reduction in cell viability, PC50, in the presence of 500 nM paclitaxel was calculated from the data in FIG. 4A.

[5] = target: T1, Cysteineless Mouse MDR3 P-glycoprotein; experiment: ATP hydrolysis by purified P-glycoprotein, basal and verapamil-stimulated; type: biochemical; details: in the presence of verapamil
Description: The efficacy of molecules identified using in silico methods to function as potential inhibitors of P-glycoprotein was initially tested with regard to their capability to inhibit ATP hydrolysis by purified P-glycoprotein. For this purpose, a well-established activity assay for ATP hydrolyzing enzymes that uses the oxidation of NADH to NAD+ through coupling the reactions of pyruvate kinase and lactate dehydrogenase to the hydrolysis of ATP was adapted to medium throughput conditions on 96 well plates. […] In this set-up, the effects of potential small molecule inhibitors on the ATP hydrolysis activity of P-glycoprotein were tested in duplicate or triplicate and were repeated at least two times using different enzyme preparations.
The P-glycoprotein used in these assays was a close relative of the human P-glycoprotein that is found in mice. A mutant version of the mouse P-glycoprotein where all intrinsic cysteine amino acids had been replaced by alanine residues was recombinantly expressed in the yeast Pichia pastoris and used for these initial tests. […] Prior to testing the ATP-hydrolysis activity, P-glycoprotein was incubated with phosphatidyl choline for stabilization of the enzyme during the assay.
Different concentrations of the to-be-tested small molecules were added and pre-incubated at 37° C. The ATP hydrolysis reaction was then started by adding equal volume of double concentrated ATPase cocktail. The final ATP concentration in the reaction was 2 mM. The reaction was allowed to proceed for 20 minutes, the rate of ATP hydrolysis was calculated using the molar extinction coefficient of NADH, and the one-to-one relationship of ATP hydrolyzed and NADH oxidized.
Evaluation of mode of inhibition of P-glycoprotein by Group 1 and Group 2 variants of compound 29. To assess the mode of inhibition of P-gp by the novel variants of P-gp inhibitor 29, ATP hydrolysis by P-gp was evaluated in the presence or absence of the variants. […] Murine P-gp (MDR3) expressed in Pichia pastoris that had all naturally occurring cysteines replaced with alanine, was used^45, 46. It is widely assumed that the ATP hydrolytic rate of P-gp is stimulated in the presence of transport substrates when compared to ATP hydrolysis in the absence of transport substrates. Assays comparing these rates can therefore be useful not only in identifying inhibitors of P-gp catalyzed ATP hydrolysis, but also to potentially infer whether a compound might be a transport substrate if basal ATPase rates are stimulated by the addition of a compound.

DU145-TxR = experiment: Re-sensitization to Paclitaxel or Doxorubicin at 25 μM compound (MTT); type: cell-based, human; details: 48 hours
Experimental: FIGS. 3A-3B are plots that show an example of the re-sensitization of a multidrug resistant prostate cancer cell line to two different chemotherapeutics using the prostate cancer derived cell line, DU145 and the multidrug-resistant variant, DU145-TxR. […] Cell viability was measured by the MTT (3-(4,5-dimethylthiazol-2-yl)-2,5-diphenyl tetrazolium bromide assay conducted as described previously. After 48 hours of treatment with Paclitaxel or Doxorubicin alone or in the presence of 25 μM compound 29, 34, or 45 media was removed and cells were washed twice with phosphate buffered saline (PBS) and MTT assay was conducted 24 hours later. Data expressed as mean±SEM.

[6] = target: T1, Cysteineless Mouse MDR3 P-glycoprotein; experiment: SL-ATP binding to P-gp by ESR spectroscopy; details: 50 microM inhibitor compound
Description: Determination of the possible mode of ATP hydrolysis inhibition by the identified P-glycoprotein inhibitors. The mode of hydrolysis of ATP by P-glycoprotein was investigated by measuring the maximal binding stoichiometry and binding affinity of an analog of ATP, SL-ATP, and by Electron Spin Resonance (ESR) spectroscopy, similar to in both the presence and absence of the identified inhibitors.
The high-field signal of the freely mobile, unbound SL-ATP is compared and is used to calculate the amount of ATP-analog bound to P-glycoprotein. Binding of SL-ATP in the absence of any P-glycoprotein inhibitor saturated at about 2 mol of SL-nucleotide bounds per mol of P-glycoprotein.
FIGS. 2A-2D are plots showing the effects of P-glycoprotein ATP hydrolysis inhibitors on nucleotide binding. Between 30 and 50 microM Pgp were incubated with 50 microM inhibitor compound. Increasing amounts of SL-ATP were added. The ESR signal of the free SL-ATP in the presence of P-glycoprotein and inhibitor was compared to that in the absence of P-glycoprotein. The graphs represent at least 3 individual studies each using 3 to 5 different P-glycoprotein preparations.

A2780 = experiment: Hyper-sensitization of ovarian cancer cells to doxorubicin; type: cell-based; details: not chemotherapy resistant A2780
Description: Hyper-sensitization of cancers to chemotherapeutics. […] The sensitivity of normal, not chemotherapy resistant A2780 ovarian cancer cell lines to doxorubicin was increased by several orders of magnitude in these assays.

HFL1 = experiment: Intrinsic toxicity, MTT survival; type: cell-based; details: Homo sapiens, 48 hours, ± standard error
Experimental: as §1
as §2, with “DU145TxR. The potential toxicity of the compounds were assessed at concentrations that centered around 25 μM.” for “DU145TxR.”

Effect on stimulated ATPase [5]	Effect on SL-ATP binding [6]	SMILES	IC50 (DU145TXR [1]) [µM]	IC50 (DU145) [µM]	Effect on cell viability with paclitaxel (DU145TXR [2]; 5 μM and 10 μM compound)	Effect on SL-ANP binding [3]	Effect on paclitaxel sensitivity (DU145TXR [4])	Chemotherapeutic sensitivity of MDR cell line (Paclitaxel or Doxorubicin) (DU145-TxR)	Sensitization to paclitaxel (DU145TXR [2]; 25 μM compound) [fold]	EC50 (DU145TXR [4]; in the presence of 500 nM paclitaxel, 48 hours, read-out: PC50, potentiation concentration of inhibitor resulting in 50% reduction in cell viability) [µM]	Sensitivity to doxorubicin (A2780)	IC50 (HFL1) [µM]
–	–	COc1ccc(CCN(C)CCCC(C#N)(c2ccc(OC)c(OC)c2)C(C)C)cc1OC (stereo not shown) [Verapamil, verapamil, reference compound]	147.5 ± 0.1	74.5 ± 0.04	–	–	–	–	–	–	–	–
–	–	COC(=O)c1ccc(C(c2c(O)oc3ccccc3c2=O)c2c(O)oc3ccccc3c2=O)cc1 [SMU-19, methyl 4-[bis(2-hydroxy-4-oxochromen-3-yl)methyl]benzoate]	–	–	no effect on cell viability	reduce the number of binding sites	no effect	–	–	–	–	–
significantly inhibit	decreased the SL-ATP binding affinities	CCC(C(=O)N1CCN(c2ccc(OC)cc2)CC1)n1nc(C)c2sc3ccccc3c2c1=O (stereo not shown) [SMU-34, 2-[1-[4-(4-methoxyphenyl)piperazin-1-yl]-1-oxobutan-2-yl]-4-methyl-[1]benzothiolo[2,3-d]pyridazin-1-one]	200.3 ± 0.17	47.2 ± 0.02	–	reduce the number of binding sites	strongly affected the sensitivity	restores chemotherapeutic sensitivity	1200	0.57 ± 0.003	hyper-sensitized	85.2 ± 0.04

Source: patent publication US20220175777A1, “Inhibitors of Multidrug Resistance Transporter P-Glycoprotein” (Southern Methodist University, priority 2014, published 2022)
